{"source": "ChEMBL document CHEMBL3832071", "about": "“DailyMed|setid=56428c8f-8a4b-4cbf-93f1-28d8b5cfb51a | MYCOPHENOLATE MOFETIL- mycophenolate mofetil capsule|MYCOPHENOLATE MOFETIL- mycophenolate mofetil tablet, film coated | Cadila Healthcare Limited”", "assay_type_in_all_cases": "ADME, organism-based", "key": {"Homo sapiens [1]": {"system": "Homo sapiens", "experiment": "Pharmacokinetic parameters for Mycophenolic acid following multiple administration of Mycophenolate Mofetil to hepatic, cardiac and renal transplant patients, at least 5 days after transplant.", "design": "dose 600 mg/m2, dose 1.5 g, dose 1 g, route oral, route iv", "details": "in vivo, 120 h, dosed compound id 90, dosed compound name MYCOPHENOLATE MOFETIL, gender male and female, regimen Twice daily, tissue Plasma"}, "Homo sapiens [2]": {"system": "Homo sapiens", "experiment": "Apparent Volume of distribution (Vd) of […] following oral and intravenous (IV) administration of Mycophenolate Mofetil to 12 healthy volunteers", "details": "in vivo, dosed compound id 90, dosed compound name MYCOPHENOLATE MOFETIL, gender male and female, tissue Plasma"}, "Homo sapiens [3]": {"system": "Homo sapiens", "experiment": "Pharmacokinetic parameters for Mycophenolic acid following single oral administration of Mycophenolate Mofetil to subjects with different health status.", "design": "dose 1 g, route oral", "details": "in vivo, dosed compound id 90, dosed compound name MYCOPHENOLATE MOFETIL, gender male and female, regimen Single dose, tissue Plasma"}}, "note": "“And” between values parts separate entries of the source, which are not always exact repeats. Equal entries are not always repeated."}
{"compound": "COc1c(C)c2c(c(O)c1C/C=C(\\C)CCC(=O)O)C(=O)OC2", "note": "[MYCOPHENOLIC ACID]", "values": [{"measurement": "AUC(0-12)", "setting": "Homo sapiens [1]; sampling time1 4 hours", "value": 54.1, "unit": "µg·h/mL"}, {"measurement": "AUC(0-12)", "setting": "Homo sapiens [1]", "value": "43.3 mcg.hr/mL [middle of 21 runs]"}, {"measurement": "Tmax", "setting": "Homo sapiens [1]; iv, dose 1 g", "value": "1.58 h and 1.5 h"}, {"measurement": "Tmax", "setting": "Homo sapiens [1]; po, dose 1 g", "value": "1.33 h and 1.31 h"}, {"measurement": "Tmax", "setting": "Homo sapiens [1]; po, dose 1.5 g", "value": "1.15 hr [middle of 5 runs]"}, {"measurement": "Vd", "setting": "Homo sapiens [2]; iv", "value": 3.6, "unit": "L/kg"}, {"measurement": "Vd", "setting": "Homo sapiens [2]; po", "value": 4, "unit": "L/kg"}, {"measurement": "Tmax", "setting": "Homo sapiens [3]; dose 1 g, route oral", "value": "0.8 h and 0.75 h and 0.63 h and 1 h and 0.85 h"}, {"measurement": "AUC(0-48)", "setting": "Homo sapiens [3]", "value": 29800, "unit": "ng·h/mL"}, {"measurement": "AUC(0-96)", "setting": "Homo sapiens [3]", "value": "45000 ng·h/mL and 59900 ng·h/mL and 78600 ng·h/mL"}, {"measurement": "Cmax", "setting": "Homo sapiens [3]", "value": "24500 ng/mL and 25300 ng/mL and 16300 ng/mL and 22400 ng/mL"}, {"measurement": "Total AUC", "setting": "Homo sapiens [3]", "value": 63900, "unit": "ng·h/mL"}]}
